Reference: ChEMBL document CHEMBL5143623, “Discovery of novel spiro compound as RAF kinase inhibitor with in vitro potency against KRAS mutant cancer” (Bioorg Med Chem Lett, 2022)
≈ marks a conversion by molar mass, not a printed value. Calls of active or inactive are those of the source. The calls are words filed in the database; no cut-off is given here.

Key:
NCI-H358 [1] = test: Growth inhibition of human H358 cells expressing KRAS […] mutant measured after 3 days by Cell-titer Glo assay; assay type: functional; conditions: NCI-H358, 72 h, time 3 day
[2] = target: RAF proto-oncogene serine/threonine-protein kinase (Homo sapiens, UniProt P04049); test: Inhibition of human recombinant cRAF measured after 1 hr by TR-FRET assay
A-375 = test: Growth inhibition of human A375 cells expressing bRaf V600E mutant measured after 3 days by Cell-titer Glo assay; assay type: functional; conditions: A-375, 72 h, time 3 day
Cytochrome P450 3A4 [3] = target: T1, Cytochrome P450 3A4 (Homo sapiens, UniProt P08684); test: Inhibition of CYP3A4 in human liver microsomes using midazolam as substrate; set-up: species or system Microsome
[4] = target: Serine/threonine-protein kinase B-raf (Homo sapiens, UniProt P15056, V600E); test: Inhibition of human recombinant bRAF […] mutant measured after 1 hr by TR-FRET assay
[5] = Stability of compound in rat liver microsomes assessed as half life; assay type: ADME, Microsome
[6] = MRT (0 to infinity) in mouse at 1 mg/kg, iv by LC-MS/MS analysis; assay type: ADME, organism-based; conditions: in vivo
[7] = Clearance in mouse at 1 mg/kg, iv by LC-MS/MS analysis; assay type: ADME, organism-based; conditions: in vivo
[8] = Volume of distribution in mouse at 1 mg/kg, iv by LC-MS/MS analysis; assay type: ADME, organism-based; conditions: in vivo
[9] = Stability of compound in human liver microsomes assessed as half life; assay type: ADME, Microsome
NCI-H358 [10] = test: Effect on Erk signalling pathway in human H358 cells assessed as increase in Erk phosphorylation by HTRF assay; assay type: functional, cell-based
[11] = Oral bioavailability in mouse at 2 mg/kg by LC-MS/MS analysis; assay type: ADME, organism-based; conditions: in vivo
[12] = Half life in mouse at 2 mg/kg, po by LC-MS/MS analysis; assay type: ADME, organism-based; conditions: in vivo
[13] = Hepatic clearance in human liver microsomes; assay type: ADME, Microsome
[14] = Half life in rat at 1 mg/kg, iv by LC-MS/MS analysis; assay type: ADME, organism-based; conditions: in vivo
[15] = MRT (0 to infinity) in rat at 2 mg/kg, po by LC-MS/MS analysis; assay type: ADME, organism-based; conditions: in vivo
[16] = Tmax in rat at 2 mg/kg, po by LC-MS/MS analysis; assay type: ADME, organism-based; conditions: in vivo
[17] = Cmax in mouse at 2 mg/kg, po by LC-MS/MS analysis; assay type: ADME, organism-based; set-up: dose 2 mg/kg, route po; conditions: in vivo
[18] = Half life in rat at 2 mg/kg, po by LC-MS/MS analysis; assay type: ADME, organism-based; conditions: in vivo
[19] = Hepatic clearance in dog liver microsomes; assay type: ADME, Canis lupus familiaris, Microsome
[20] = Permeability of compound by PAMPA assay; assay type: ADME; conditions: read-out: permeability
[21] = AUC(0 to t) in mouse at 1 mg/kg, iv by LC-MS/MS analysis; assay type: ADME, organism-based; set-up: dose 1 mg/kg, route iv; conditions: in vivo
Cytochrome P450 2C9 = Cytochrome P450 2C9 (Homo sapiens, UniProt P11712); test: Inhibition of CYP2C9 in human liver microsomes; assay type: ADME, Microsome
[22] = MRT (0 to infinity) in rat at 1 mg/kg, iv by LC-MS/MS analysis; assay type: ADME, organism-based; conditions: in vivo
[23] = Solubility of compound in PBS at pH 7.4; assay type: physicochemical
[24] = Cmax in rat at 2 mg/kg, po by LC-MS/MS analysis; assay type: ADME, organism-based; set-up: dose 2 mg/kg, route po; conditions: in vivo
[25] = AUC(0 to t) in rat at 1 mg/kg, iv by LC-MS/MS analysis; assay type: ADME, organism-based; set-up: dose 1 mg/kg, route iv; conditions: in vivo
[26] = AUC(0 to t) in mouse at 2 mg/kg, po by LC-MS/MS analysis; assay type: ADME, organism-based; set-up: dose 2 mg/kg, route po; conditions: in vivo
Cytochrome P450 2D6 = Cytochrome P450 2D6 (Homo sapiens, UniProt P10635); test: Inhibition of CYP2D6 in human liver microsomes; set-up: species or system Microsome
[27] = MRT (0 to infinity) in mouse at 2 mg/kg, po by LC-MS/MS analysis; assay type: ADME, organism-based; conditions: in vivo
[28] = Tmax in mouse at 2 mg/kg, po by LC-MS/MS analysis; assay type: ADME, organism-based; conditions: in vivo
Cytochrome P450 2C19 = Cytochrome P450 2C19 (Homo sapiens, UniProt P33261); test: Inhibition of CYP2C19 in human liver microsomes; assay type: ADME, Microsome
[29] = Stability of compound in Dog liver microsomes assessed as half life; assay type: ADME, Canis lupus familiaris, Microsome
Cytochrome P450 1A2 = target: T2, Cytochrome P450 1A2 (Homo sapiens, UniProt P05177); test: Inhibition of CYP1A2 in human liver microsomes; assay type: ADME, Microsome
T2 sequence (P05177 whole entry): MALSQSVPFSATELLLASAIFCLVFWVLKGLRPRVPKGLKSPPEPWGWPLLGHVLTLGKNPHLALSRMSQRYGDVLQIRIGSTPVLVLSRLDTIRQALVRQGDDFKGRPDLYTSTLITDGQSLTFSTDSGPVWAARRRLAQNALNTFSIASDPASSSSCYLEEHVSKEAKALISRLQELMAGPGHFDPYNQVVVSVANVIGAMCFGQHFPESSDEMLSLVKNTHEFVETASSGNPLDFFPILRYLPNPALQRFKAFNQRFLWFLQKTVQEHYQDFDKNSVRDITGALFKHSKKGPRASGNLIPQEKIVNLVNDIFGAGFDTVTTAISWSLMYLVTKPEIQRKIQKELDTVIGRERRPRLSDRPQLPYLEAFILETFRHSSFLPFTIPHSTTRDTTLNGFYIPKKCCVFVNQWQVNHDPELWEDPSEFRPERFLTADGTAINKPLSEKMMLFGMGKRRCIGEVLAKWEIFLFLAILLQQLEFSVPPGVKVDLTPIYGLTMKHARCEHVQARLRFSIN

Calu-6 = test: Growth inhibition of human Calu-6 cells expressing KRAS Q61K mutant measured after 3 days by Cell-titer Glo assay; assay type: functional; conditions: Calu-6, 72 h, time 3 day
[30] = Volume of distribution in rat at 1 mg/kg, iv by LC-MS/MS analysis; assay type: ADME, organism-based; conditions: in vivo
[31] = target: Voltage-gated inwardly rectifying potassium channel KCNH2 (Homo sapiens, UniProt Q12809); test: Inhibition of hERG; assay type: toxicity
[32] = Hepatic clearance in mouse liver microsomes; assay type: ADME, Microsome
[33] = Clearance in rat at 1 mg/kg, iv by LC-MS/MS analysis; assay type: ADME, organism-based; conditions: in vivo
[34] = Hepatic clearance in rat liver microsomes; assay type: ADME, Microsome
[35] = Stability of compound in mouse liver microsomes assessed as half life; assay type: ADME, Microsome
Cytochrome P450 3A4 [36] = target: T1, Cytochrome P450 3A4; test: Inhibition of CYP3A4 in human liver microsomes using testosterone as substrate; set-up: species or system Microsome
[37] = target: Serine/threonine-protein kinase B-raf (Homo sapiens, UniProt P15056); test: Inhibition of human recombinant wild-type bRAF measured after 1 hr by TR-FRET assay
[38] = Oral bioavailability in rat at 2 mg/kg by LC-MS/MS analysis; assay type: ADME, organism-based; conditions: in vivo
[39] = Half life in mouse at 1 mg/kg, iv by LC-MS/MS analysis; assay type: ADME, organism-based; conditions: in vivo
[40] = AUC(0 to t) in rat at 2 mg/kg, po by LC-MS/MS analysis; assay type: ADME, organism-based; set-up: dose 2 mg/kg, route po; conditions: in vivo

RAF proto-oncogene serine/threonine-protein kinase, sequence (P04049 whole entry): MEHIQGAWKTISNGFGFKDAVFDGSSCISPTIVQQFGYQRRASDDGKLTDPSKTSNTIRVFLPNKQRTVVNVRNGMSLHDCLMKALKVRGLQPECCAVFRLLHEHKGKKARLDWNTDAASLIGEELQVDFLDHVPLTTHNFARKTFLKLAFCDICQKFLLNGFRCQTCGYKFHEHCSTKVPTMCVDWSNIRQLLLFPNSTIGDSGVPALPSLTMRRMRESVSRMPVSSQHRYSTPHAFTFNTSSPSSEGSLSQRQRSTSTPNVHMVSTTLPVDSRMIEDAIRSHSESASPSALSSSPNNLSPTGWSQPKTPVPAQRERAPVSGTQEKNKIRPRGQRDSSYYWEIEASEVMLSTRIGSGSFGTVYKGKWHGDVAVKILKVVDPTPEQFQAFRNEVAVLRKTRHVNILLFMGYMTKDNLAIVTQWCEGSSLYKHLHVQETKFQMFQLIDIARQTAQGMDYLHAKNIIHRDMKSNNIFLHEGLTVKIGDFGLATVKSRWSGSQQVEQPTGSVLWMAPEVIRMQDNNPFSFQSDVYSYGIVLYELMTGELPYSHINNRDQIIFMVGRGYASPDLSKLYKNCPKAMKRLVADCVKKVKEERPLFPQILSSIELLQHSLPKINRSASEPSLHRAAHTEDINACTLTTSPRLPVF
T1 sequence (P08684 whole entry): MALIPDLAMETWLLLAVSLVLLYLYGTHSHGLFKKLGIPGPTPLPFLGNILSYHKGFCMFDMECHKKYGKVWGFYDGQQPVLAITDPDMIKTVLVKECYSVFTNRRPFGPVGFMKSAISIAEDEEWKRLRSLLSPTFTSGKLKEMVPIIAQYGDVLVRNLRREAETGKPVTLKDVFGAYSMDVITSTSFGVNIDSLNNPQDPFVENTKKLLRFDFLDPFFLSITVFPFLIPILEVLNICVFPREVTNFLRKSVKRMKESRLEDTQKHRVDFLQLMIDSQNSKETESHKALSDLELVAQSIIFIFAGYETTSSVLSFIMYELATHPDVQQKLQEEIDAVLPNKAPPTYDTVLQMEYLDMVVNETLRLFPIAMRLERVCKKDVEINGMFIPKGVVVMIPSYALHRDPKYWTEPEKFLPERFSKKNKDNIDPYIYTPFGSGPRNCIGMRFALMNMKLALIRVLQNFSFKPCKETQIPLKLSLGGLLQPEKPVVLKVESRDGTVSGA
Voltage-gated inwardly rectifying potassium channel KCNH2, sequence (Q12809 whole entry): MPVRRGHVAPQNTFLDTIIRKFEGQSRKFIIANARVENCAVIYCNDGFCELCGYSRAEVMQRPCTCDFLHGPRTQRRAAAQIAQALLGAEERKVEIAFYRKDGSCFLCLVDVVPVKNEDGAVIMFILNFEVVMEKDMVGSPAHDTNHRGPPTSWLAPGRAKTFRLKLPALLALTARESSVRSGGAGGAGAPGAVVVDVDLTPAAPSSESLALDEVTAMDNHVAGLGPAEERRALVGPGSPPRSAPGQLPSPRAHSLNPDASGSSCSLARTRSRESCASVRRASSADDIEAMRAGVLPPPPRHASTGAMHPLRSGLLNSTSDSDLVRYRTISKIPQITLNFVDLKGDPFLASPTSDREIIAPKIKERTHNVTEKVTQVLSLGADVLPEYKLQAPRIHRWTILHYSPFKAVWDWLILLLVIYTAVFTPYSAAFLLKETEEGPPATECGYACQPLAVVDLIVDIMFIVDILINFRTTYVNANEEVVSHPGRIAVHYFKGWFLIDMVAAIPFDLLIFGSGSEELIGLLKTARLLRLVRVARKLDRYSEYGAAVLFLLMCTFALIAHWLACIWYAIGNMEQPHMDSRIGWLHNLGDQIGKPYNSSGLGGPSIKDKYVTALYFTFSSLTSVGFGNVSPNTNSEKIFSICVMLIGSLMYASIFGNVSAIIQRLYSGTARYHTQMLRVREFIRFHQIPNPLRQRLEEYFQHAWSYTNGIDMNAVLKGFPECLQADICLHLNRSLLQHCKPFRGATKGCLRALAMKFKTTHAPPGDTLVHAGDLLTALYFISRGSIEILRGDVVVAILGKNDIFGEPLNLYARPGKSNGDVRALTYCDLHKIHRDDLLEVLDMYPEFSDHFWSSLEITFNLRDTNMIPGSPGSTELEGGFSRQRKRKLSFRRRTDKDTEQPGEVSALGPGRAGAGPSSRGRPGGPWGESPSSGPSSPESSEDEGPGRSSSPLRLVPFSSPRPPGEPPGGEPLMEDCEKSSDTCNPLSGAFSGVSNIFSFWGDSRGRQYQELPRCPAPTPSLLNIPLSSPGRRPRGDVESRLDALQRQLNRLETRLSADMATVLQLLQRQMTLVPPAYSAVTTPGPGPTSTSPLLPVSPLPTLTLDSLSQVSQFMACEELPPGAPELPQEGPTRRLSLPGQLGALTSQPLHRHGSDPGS
Serine/threonine-protein kinase B-raf (Homo sapiens, UniProt P15056), sequence (P15056 whole entry): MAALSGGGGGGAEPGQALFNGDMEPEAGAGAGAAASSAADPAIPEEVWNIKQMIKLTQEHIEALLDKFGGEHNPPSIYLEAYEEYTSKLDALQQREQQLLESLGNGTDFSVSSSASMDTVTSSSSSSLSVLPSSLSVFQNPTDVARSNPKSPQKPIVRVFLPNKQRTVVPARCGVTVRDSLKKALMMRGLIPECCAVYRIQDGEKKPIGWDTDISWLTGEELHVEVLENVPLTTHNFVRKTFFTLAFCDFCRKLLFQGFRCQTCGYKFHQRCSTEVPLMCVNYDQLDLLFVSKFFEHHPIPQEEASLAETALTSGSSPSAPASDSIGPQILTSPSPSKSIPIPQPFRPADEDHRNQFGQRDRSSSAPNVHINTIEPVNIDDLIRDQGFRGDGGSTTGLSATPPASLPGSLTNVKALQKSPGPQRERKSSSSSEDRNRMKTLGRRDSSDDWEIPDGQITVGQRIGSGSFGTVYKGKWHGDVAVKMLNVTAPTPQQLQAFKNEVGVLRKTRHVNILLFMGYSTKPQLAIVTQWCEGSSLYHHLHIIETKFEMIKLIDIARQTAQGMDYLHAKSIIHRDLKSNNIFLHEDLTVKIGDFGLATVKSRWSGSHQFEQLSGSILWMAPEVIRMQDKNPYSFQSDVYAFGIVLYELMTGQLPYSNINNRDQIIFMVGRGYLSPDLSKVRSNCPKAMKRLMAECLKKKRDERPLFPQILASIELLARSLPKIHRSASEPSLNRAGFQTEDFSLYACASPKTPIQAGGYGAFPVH
Cytochrome P450 2C9, sequence (P11712 whole entry): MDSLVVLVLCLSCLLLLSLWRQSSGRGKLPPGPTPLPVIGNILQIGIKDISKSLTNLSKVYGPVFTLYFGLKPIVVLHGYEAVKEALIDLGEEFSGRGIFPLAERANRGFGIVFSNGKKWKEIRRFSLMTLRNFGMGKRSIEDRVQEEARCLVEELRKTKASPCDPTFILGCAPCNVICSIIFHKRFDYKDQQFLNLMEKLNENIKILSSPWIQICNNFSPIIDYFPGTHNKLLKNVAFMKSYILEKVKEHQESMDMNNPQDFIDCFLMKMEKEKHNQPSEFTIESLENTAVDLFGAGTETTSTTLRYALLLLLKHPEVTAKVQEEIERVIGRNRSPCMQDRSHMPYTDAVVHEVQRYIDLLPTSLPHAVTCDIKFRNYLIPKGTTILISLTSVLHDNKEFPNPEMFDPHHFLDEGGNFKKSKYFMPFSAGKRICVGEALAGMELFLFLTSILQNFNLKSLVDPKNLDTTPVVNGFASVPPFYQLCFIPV
Serine/threonine-protein kinase B-raf (Homo sapiens, UniProt P15056, V600E), sequence (P15056 2-766 V600E limits assumed): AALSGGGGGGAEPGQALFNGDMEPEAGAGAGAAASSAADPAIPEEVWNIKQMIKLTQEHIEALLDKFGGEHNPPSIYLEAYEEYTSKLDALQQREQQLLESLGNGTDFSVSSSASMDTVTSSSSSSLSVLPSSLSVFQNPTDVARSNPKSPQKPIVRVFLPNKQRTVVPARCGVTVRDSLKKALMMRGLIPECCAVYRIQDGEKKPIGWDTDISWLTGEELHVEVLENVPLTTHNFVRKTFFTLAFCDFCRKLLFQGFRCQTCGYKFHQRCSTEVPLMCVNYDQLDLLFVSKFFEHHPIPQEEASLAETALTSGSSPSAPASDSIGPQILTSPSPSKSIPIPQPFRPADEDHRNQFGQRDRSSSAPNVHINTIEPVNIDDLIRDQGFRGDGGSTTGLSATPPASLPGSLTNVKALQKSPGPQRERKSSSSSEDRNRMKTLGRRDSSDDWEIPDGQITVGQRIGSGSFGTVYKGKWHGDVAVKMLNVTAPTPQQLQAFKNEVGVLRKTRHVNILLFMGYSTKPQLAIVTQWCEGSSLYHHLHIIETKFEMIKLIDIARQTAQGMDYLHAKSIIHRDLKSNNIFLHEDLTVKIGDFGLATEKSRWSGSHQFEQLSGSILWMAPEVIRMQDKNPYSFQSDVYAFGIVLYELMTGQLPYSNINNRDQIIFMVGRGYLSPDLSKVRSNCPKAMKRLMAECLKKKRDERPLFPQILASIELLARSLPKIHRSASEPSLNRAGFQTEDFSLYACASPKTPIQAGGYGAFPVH
Cytochrome P450 2D6, sequence (P10635 whole entry): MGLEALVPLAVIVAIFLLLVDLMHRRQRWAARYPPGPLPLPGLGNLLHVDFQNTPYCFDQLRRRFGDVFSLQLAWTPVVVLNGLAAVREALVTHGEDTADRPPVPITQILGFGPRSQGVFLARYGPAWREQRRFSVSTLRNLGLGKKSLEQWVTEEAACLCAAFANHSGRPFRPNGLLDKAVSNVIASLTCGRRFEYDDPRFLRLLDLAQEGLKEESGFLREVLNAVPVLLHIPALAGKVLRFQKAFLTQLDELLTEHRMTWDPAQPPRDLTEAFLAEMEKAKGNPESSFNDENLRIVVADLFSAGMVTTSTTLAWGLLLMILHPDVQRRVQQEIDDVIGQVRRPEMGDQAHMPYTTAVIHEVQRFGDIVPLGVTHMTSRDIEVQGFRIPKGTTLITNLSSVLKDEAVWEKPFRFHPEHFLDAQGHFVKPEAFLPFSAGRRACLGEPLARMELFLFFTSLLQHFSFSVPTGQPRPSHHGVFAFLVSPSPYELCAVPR

Structure (SMILES): Cc1ccc(NC(=O)c2ccnc(C(F)(F)F)c2)cc1-c1ccc2c(c1)OC1(CCOCC1)CC2
- GI50 (NCI-H358 [1]): 13 µM
- IC50 [2]: 0.036 µM

Structure (SMILES): Cc1ccc(NC(=O)c2ccnc(C(F)(F)F)c2)cc1-c1ccc2c(c1)OC1(CCOCC1)CC2O (centres undefined)
- GI50 (NCI-H358 [1]): 9.1 µM
- IC50 [2]: 0.019 µM

Structure (SMILES): Cc1ccc(NC(=O)c2ccnc(C(F)(F)F)c2)cc1-c1ccc2c(c1)OC1(CCOCC1)NC2=O
- GI50 (A-375): 2.9 µM
- GI50 (NCI-H358 [1]): 3.4 µM
- IC50 (Cytochrome P450 3A4 [3]): > 30 µM
- IC50 [4]: 0.0294 µM
- half-life [5]: 0.783 h
- MRT inf [6]: 1.74 h
- clearance [7]: 24.2 mL/min/kg
- Vd [8]: 5.87 L/kg
- half-life [9]: 0.485 h
- Activity (NCI-H358 [10]): Active
- bioavailability [11]: 40%
- t1/2 [12]: 1.91 h
- CLH [13]: 13.7 µL/min/g
- half-life [14]: 4.39 h
- IC50 [2]: 0.0038 µM
- MRT inf [15]: 8.14 h
- Tmax [16]: 4 h
- Cmax [17]: 1.48 ng/mL
- half-life [18]: 4.57 h
- CLH [19]: < 9.6 µL/min/g
- Papp [20]: < 0.018 ×10⁻⁶ cm/s
- AUC(0-t) [21]: 688 ng·h/mL
- IC50 (Cytochrome P450 2C9): > 30 µM
- MRT inf [22]: 4.35 h
- solubility [23]: 0.7 µM (≈ 0.348 µg/mL)
- Cmax [24]: 52.1 ng/mL
- AUC(0-t) [25]: 1120 ng·h/mL
- AUCt [26]: 546 ng·h/mL
- IC50 (Cytochrome P450 2D6): > 30 µM
- MRT inf [27]: 3.59 h
- Tmax [28]: 1 h
- IC50 (Cytochrome P450 2C19): > 30 µM
- half-life [29]: > 2.32 h
- IC50 (Cytochrome P450 1A2): > 30 µM
- GI50 (Calu-6): 3.9 µM
- Vd [30]: 5.59 L/kg
- IC50 [31]: 5.9 µM
- CLH [32]: 45 µL/min/g
- clearance [33]: 15 mL/min/kg
- CLH [34]: 32.7 µL/min/g
- half-life [35]: 1.02 h
- IC50 (Cytochrome P450 3A4 [36]): > 30 µM
- IC50 [37]: 0.036 µM
- bioavailability [38]: 24%
- half-life [39]: 2.81 h
- AUC(0-t) [40]: 517 ng·h/mL

Structure (SMILES): Cc1ccc(NC(=O)c2ccnc(C(F)(F)F)c2)cc1-c1cc(OCCO)nc(N2CCOCC2)c1 [NAPORAFENIB]
- GI50 (NCI-H358 [1]): 3 µM
- Activity (NCI-H358 [10]): Active

Structure (SMILES): Cc1ccc(NC(=O)c2ccnc(C(F)(F)F)c2)cc1-c1ccc2c(c1)OC1(CCOCC1)CC2NCCO (centres undefined)
- GI50 (NCI-H358 [1]): 14 µM
- IC50 [2]: 0.029 µM

Structure (SMILES): Cc1ccc(NC(=O)c2ccnc(C(F)(F)F)c2)cc1-c1ccc2c(c1)OC1(CCS(=O)(=O)CC1)NC2=O
- GI50 (NCI-H358 [1]): 7.3 µM
- IC50 [2]: 0.005 µM

Structure (SMILES): Cc1ccc(NC(=O)c2ccnc(C(F)(F)F)c2)cc1-c1ccc2c(c1)OC1(CCCOC1)NC2=O (centres undefined)
- GI50 (NCI-H358 [1]): 4.9 µM
- IC50 [2]: 0.005 µM

Structure (SMILES): Cc1ccc(NC(=O)c2ccnc(C(F)(F)F)c2)cc1-c1ccc2c(c1)OC1(COC1)NC2=O
- GI50 (NCI-H358 [1]): 10 µM
- IC50 [2]: 0.062 µM

Structure (SMILES): Cc1ccc(NC(=O)c2ccnc(C(F)(F)F)c2)cc1-c1ccc2c(c1)N(O)C1(CCOCC1)NC2=O
- GI50 (NCI-H358 [1]): 8.9 µM
- IC50 [2]: 0.055 µM

Structure (SMILES): Cc1ccc(NC(=O)c2ccnc(C(F)(F)F)c2)cc1-c1ccc2c(c1)OC1(CCOC1)NC2=O (centres undefined)
- GI50 (NCI-H358 [1]): 8.3 µM
- IC50 [2]: 0.0043 µM
